Assay results: patent US8431593B2, “Heteroaryl amide derivatives” (H. Lundbeck A/S, priority 2006, dated 2013)
pIC50: −log10 of the molar value.

Target: T1, P2X7 receptor (Homo sapiens, UniProt Q99572)
T1 construct: host or cells: SH-SY5Y
T1 sequence (Q99572 1-595): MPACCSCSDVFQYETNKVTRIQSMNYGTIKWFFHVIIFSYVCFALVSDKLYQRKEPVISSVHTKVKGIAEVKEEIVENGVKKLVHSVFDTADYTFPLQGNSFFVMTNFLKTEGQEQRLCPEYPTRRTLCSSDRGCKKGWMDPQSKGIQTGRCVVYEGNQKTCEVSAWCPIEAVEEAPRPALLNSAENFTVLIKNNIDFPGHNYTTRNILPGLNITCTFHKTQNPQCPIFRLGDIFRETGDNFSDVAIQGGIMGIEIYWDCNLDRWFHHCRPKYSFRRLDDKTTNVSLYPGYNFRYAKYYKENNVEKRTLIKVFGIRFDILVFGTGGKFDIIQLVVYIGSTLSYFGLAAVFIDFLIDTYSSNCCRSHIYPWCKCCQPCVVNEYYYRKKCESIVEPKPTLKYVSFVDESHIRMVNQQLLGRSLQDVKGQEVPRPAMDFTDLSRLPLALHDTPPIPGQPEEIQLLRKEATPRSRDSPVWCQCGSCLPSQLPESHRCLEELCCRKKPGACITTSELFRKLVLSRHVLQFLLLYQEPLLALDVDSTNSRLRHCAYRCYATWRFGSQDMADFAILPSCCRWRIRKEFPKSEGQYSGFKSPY
Experiment: P2X7 calcium mobilization assay, high throughput, antagonist activity (Example 4A)
Type: cell-based
Conditions: 50% decrease in the fluorescence response of cells exposed to 80 μM of 2′(3′)-O-(4-benzoyl-benzoyl)adenosine 5′-triphosphate; determined as in Example 4A; read-out: IC50
Outline: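 Antagonism was measured as calcium fluorescence (FLIPR Tetra) in cells seeded one day earlier at 100,000/well, loaded with dye for 1 h and exposed to compound for 1 h at room temperature before agonist. Peak RFU, minus the no-agonist background, was referenced to the mean of the agonist wells.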

CC(C)N1CCN(C(=O)Cc2cn3c(C(=O)NCC4(c5ccc(Cl)cc5)CCCCC4)cccc3n2)CC1 [Compound 886, N-{[1-(4-chlorophenyl)cyclohexyl]methyl}-2-[2-(4-isopropylpiperazin-1-yl)-2-oxoethyl] imidazo[1,2-a] pyridine-5-carboxamide]
pIC50: > 5.70

O=C(NCC1(c2ccc(C(F)(F)F)cc2)CCCCC1)c1cccc2nc(CC(=O)N3CCSCC3)cn12 [Compound 889, 2-(2-oxo-2-thiomorpholin-4-ylethy)-N-({1-[4-(trifluoromethyl)phenyl]cyclohexyl}methyl) imidazo[1,2-a] pyridine-5-carboxamide]
pIC50: > 5.70

O=C(NCC1(c2cccnc2)CCCCC1)c1cccc2nc(CC(=O)N3CCSCC3)cn12 [Compound 890, 2-(2-oxo-2-thiomorpholin-4-ylethyl)-N-[(1-pyridin-3-ylcyclohexyl)methyl] imidazo[1,2-a] pyridine-5-carboxamide]
pIC50: > 5.70

O=C(NCC1(c2ccc(Cl)cc2)CCCCC1)c1cccc2nc(CC(=O)N3CCSCC3)cn12 [Compound 891, N-{[1-(4-chlorophenyl)cyclohexyl]methyl}-2-(2-oxo-2-thiomorpholin-4-ylethyl)imidazo [1,2-a]pyridine-5-carboxamide]
pIC50: > 5.70

CN(C)C1CCCN(C(=O)Cc2cn3c(C(=O)NCC4(c5ccc(C(F)(F)F)cc5)CCCCC4)cccc3n2)C1 (stereo not drawn) [Compound 892, 2-{2-[3-(dimethylamino)piperidin-1-yl]-2-oxoethyl}-N-({1-[4-(trifluoromethyl)phenyl]cyclohexyl}methyl) imidazo[1,2-a] pyridine-5-carboxamide]
pIC50: > 5.70

CN(C)C1CCCN(C(=O)Cc2cn3c(C(=O)NCC4(c5cccnc5)CCCCC4)cccc3n2)C1 (stereo not drawn) [Compound 893, 2-{2-[3-(dimethylamino)piperidin-1-yl]-2-oxoethyl}-N-[(1-pyridin-3-ylcyclohexyl)methyl] imidazo[1,2-a] pyridine-5-carboxamide]
pIC50: > 5.70

CN(C)C1CCCN(C(=O)Cc2cn3c(C(=O)NCC4(c5ccc(Cl)cc5)CCCCC4)cccc3n2)C1 (stereo not drawn) [Compound 894, N-{[1-(4-chlorophenyl)cyclohexyl]methyl}-2-{2-[3-(dimethylamino)piperidin-1-yl]-2-oxoethyl} imidazo[1,2-a] pyridine-5-carboxamide]
pIC50: > 5.70

COC1CCN(C(=O)Cc2cn3c(C(=O)NCC4(c5ccc(C(F)(F)F)cc5)CCCCC4)cccc3n2)CC1 [Compound 896, 2-[2-(4-methoxypiperidin-1 yl)-2-oxoethyl]-N-({1-[4-(trifluoromethyl)phenyl]cyclohexyl}methyl) imidazo[1,2-a] pyridine-5-carboxamide]
pIC50: > 5.70

COC1CCN(C(=O)Cc2cn3c(C(=O)NCC4(c5cccnc5)CCCCC4)cccc3n2)CC1 [Compound 897, 2-[2-(4-methoxypiperidin-1-yl)-2-oxoethyl]-N-[(1-pyridin-3-ylcyclohexyl)methyl] imidazo[1,2-a] pyridine-5-carboxamide]
pIC50: > 5.70

COC1CCN(C(=O)Cc2cn3c(C(=O)NCC4(c5ccc(Cl)cc5)CCCCC4)cccc3n2)CC1 [Compound 898, N-{[1-(4-chlorophenyl)cyclohexyl]methyl}-2-[2-(4-methoxypiperidin-1-yl)-2-oxoethyl] imidazo[1,2-a] pyridine-5-carboxamide]
pIC50: > 5.70

CN(C)C1CCCN(C(=O)Cc2cn3c(C(=O)NCC4(c5ccc(Cl)cc5)CCOCC4)cccc3n2)C1 (stereo not drawn) [Compound 899, N-{[4-(4-chlorophenyl)tetrahydro-2H-pyran-4-yl]methyl}-2-{2-[3-(dimethylamino)piperidin-1-yl]-2-oxoethyl} imidazo[1,2-a] pyridine-5-carboxamide]
pIC50: > 5.70

O=C(O)CCc1cn2c(C(=O)NCC3(c4ccc(Cl)cc4)CCCCC3)cccc2n1 [Compound 900, 3-[5-({[1-(4-chlorophenyl)cyclohexyl]methyl}carbamoyl)imidazo[1,2-a]pyridin-2-yl] propanoic acid]
pIC50: > 5.70

CCOC(=O)Cc1nnn(Cc2cn3c(C(=O)NCC45CC6CC(CC(C6)C4)C5)cccc3n2)n1 [Compound 901, ethyl [2-({5-[(adamantan-1-ylmethyl)carbamoyl]imidazo[1,2-a]pyridin-2-yl}methyl)-2H-tetrazol-5-yl]acetate]
pIC50: > 5.70

CCOC(=O)Cc1nnnn1Cc1cn2c(C(=O)NCC34CC5CC(CC(C5)C3)C4)cccc2n1 [Compound 902, ethyl [1-({5-[(adamantan-1-ylmethyl)carbamoyl]imidazo[1,2-a]pyridin-2-yl}methyl)-1H-tetrazol-5-yl]acetate]
pIC50: > 5.70

O=C(O)Cc1nnn(Cc2cn3c(C(=O)NCC45CC6CC(CC(C6)C4)C5)cccc3n2)n1 [Compound 903, [2-({5-[(adamantan-1-ylmethyl)carbamoyl]imidazo[1,2-a]pyridin-2-yl}methyl)-2H-tetrazol-5-yl]acetic acid]
pIC50: > 5.70

O=C(O)Cc1nnnn1Cc1cn2c(C(=O)NCC34CC5CC(CC(C5)C3)C4)cccc2n1 [Compound 904, [1-({5-[(adamantan-1-ylmethyl)carbamoyl]imidazo[1,2-a]pyridin-2-yl}methyl)-1H-tetrazol-5-yl]acetic acid]
pIC50: > 5.70

CCCC(C(=O)OCC)c1cn2c(C(=O)NCC34CC5CC(CC(C5)C3)C4)cccc2n1 (stereo not drawn) [Compound 905, ethyl 2-{5-[(adamantan-1-ylmethyl)carbamoyl]imidazo[1,2-a]pyridin-2-yl}pentanoate]
pIC50: > 5.70

CCCCC(C(=O)OCC)c1cn2c(C(=O)NCC34CC5CC(CC(C5)C3)C4)cccc2n1 (stereo not drawn) [Compound 906, ethyl 2-{5-[(adamantan-1-ylmethyl)carbamoyl]imidazo[1,2-a]pyridin-2-yl} hexanoate]
pIC50: > 5.70

CCOC(=O)C(CCC(C)C)c1cn2c(C(=O)NCC34CC5CC(CC(C5)C3)C4)cccc2n1 (stereo not drawn) [Compound 907, ethyl 2-{5-[(adamantan-1-ylmethyl)carbamoyl]imidazo[1,2-a]pyridin-2-yl}-5-methylhexanoate]
pIC50: > 5.70

CCCCC(C(=O)O)c1cn2c(C(=O)NCC34CC5CC(CC(C5)C3)C4)cccc2n1 (stereo not drawn) [Compound 908, 2-{5-[(adamantan-1-ylmethyl)carbamoyl]imidazo[1,2-a]pyridin-2-yl} hexanoic acid]
pIC50: > 5.70

CCCC(C(=O)O)c1cn2c(C(=O)NCC34CC5CC(CC(C5)C3)C4)cccc2n1 (stereo not drawn) [Compound 909, 2-{5-[(adamantan-1-ylmethyl)carbamoyl]imidazo[1,2-a]pyridin-2-yl}pentanoic acid]
pIC50: > 5.70

N[C@@H]1CCN(Cc2cn3c(C(=O)NCC4(c5ccc(Cl)cc5)CCOCC4)cccc3n2)C1 [Compound 910, 2-{[(3R)-3-aminopyrrolidin-1-yl]methyl}-N-{[4-(4-chlorophenyl)tetrahydro-2H-pyran-4-yl]methyl} imidazo[1,2-a] pyridine-5-carboxamide]
pIC50: > 5.70

O=C(Cc1cn2c(C(=O)NCC34CC5CC(CC(C5)C3)C4)cccc2n1)N[C@H]1CCNC1 [Compound 911, N-(adamantan-1-ylmethyl)-2-{2-oxo-2-[(3S)-pyrrolidin-3-ylamino]ethyl} imidazo [1,2-a]pyridine-5-carboxamide]
pIC50: > 5.70

CC(C)CCC(C(=O)O)c1cn2c(C(=O)NCC34CC5CC(CC(C5)C3)C4)cccc2n1 (stereo not drawn) [Compound 912, 2-{5-[(adamantan-1-ylmethyl)carbamoyl]imidazo[1,2-a]pyridin-2-yl}-5-methylhexanoic acid]
pIC50: > 5.70

CCOC(=O)Cc1cn2c(C(=O)NCC(CC(C)C)c3ccc(Cl)cc3)cccc2n1 (stereo not drawn) [Compound 913, ethyl (5-{[2-(4-chlorophenyl)-4-methylpentyl]carbamoyl}imidazo[1,2-a]pyridin-2-yl) acetate]
pIC50: > 5.70

CCOC(=O)Cc1cn2c(C(=O)NCC3(c4ccc(Cl)cc4)CCCCC3)cccc2n1 [Compound 914, ethyl [5-({[1-(4-chlorophenyl)cyclohexyl]methyl}carbamoyl)imidazo[1,2-a]pyridin-2-yl] acetate]
pIC50: > 5.70

O=C(NCC1(c2ccc(Cl)cc2)CCCCC1)c1cccc2nc(CSc3nnn[nH]3)cn12 [Compound 915, N-{[1-(4-chlorophenyl)cyclohexyl]methyl}-2-[(1H-tetrazol-5-ylthio)methyl] imidazo [1,2-a]pyridine-5-carboxamide]
pIC50: > 5.70

CC(C)CC(CNC(=O)c1cccc2nc(CN3CCC[C@@H](N)C3)cn12)c1ccc(Cl)cc1 (stereo partly drawn) [Compound 916, 2-{[(3R)-3-aminopiperidin-1-yl]methyl}-N-[2-(4-chlorophenyl)-4-methylpentyl] imidazo [1,2-a]pyridine-5-carboxamide]
pIC50: > 5.70

Cc1ccc(C(CNC(=O)c2cccc3nc(Cn4nnc(CCO)n4)cn23)CC(C)C)cc1 (stereo not drawn) [Compound 917, 2-{[5-(2-hydroxyethyl)-2H-tetrazol-2-yl]methyl}-N-[4-methyl-2-(4-methylphenyl)pentyl] imidazo [1,2-a]pyridine-5-carboxamide]
pIC50: > 5.70

CC(C)CC(CNC(=O)c1cccc2nc(Cn3nnc(CCO)n3)cn12)c1ccc(Cl)cc1 (stereo not drawn) [Compound 918, N-[2-(4-chlorophenyl)-4-methylpentyl]-2-{[5-(2-hydroxyethyl)-2H-tetrazol-2-yl]methyl}imidazo[1,2-a]pyridine-5-carboxamide]
pIC50: > 5.70
